The record followed here is the supplement of paper PMC10307832.

Assay in all cases: relative viability (nuclei count vs DMSO), 5 days (fraction); higher = more cells survive
Compound in the assay “Tanzisertib + Bortezomib”: O[C@H]1CC[C@H](Nc2ncc3nc(Nc4c(F)cc(F)cc4F)n([C@H]4CCOC4)c3n2)CC1 [Tanzisertib] + CC(C)C[C@H](NC(=O)[C@H](Cc1ccccc1)NC(=O)c1cnccn1)B(O)O [Bortezomib] (partner 0.002 µM)
The method in brief:
(§1)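 After 5 days of treatment, lung cancer cells in 1536-well plates were fixed and stained in a single step (final 0.05% Triton X-100, 1% formaldehyde, 1 ug/ml Hoechst) and their nuclei counted on 4× images. Treatment had been applied by pin tool the day after seeding as one drug alone or as a fixed anchor-drug dose with five library-drug doses (not always all listed) in √10 steps. Relative viability is the nuclei count of treated wells divided by that of vehicle wells, and values are medians of duplicate plates.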

Compound in assay [1]: C1CNCCC1C2=CC(=NN2)C3=CC=NC=C3 + O=C(CCCCCCC(=O)Nc1ccccc1)NO [Vorinostat] (partner 1 µM)
Put shortly:
as §1

Compound in assay [2]: C[C@@H](N)c1ccc(C(=O)Nc2ccnc3[nH]ccc23)cc1 + CC(C)C[C@H](NC(=O)[C@H](Cc1ccccc1)NC(=O)c1cnccn1)B(O)O [Bortezomib] (partner 0.002 µM)
The method in brief:
as §1

Compound in the assay “Tanzisertib + OSI-027”: O[C@H]1CC[C@H](Nc2ncc3nc(Nc4c(F)cc(F)cc4F)n([C@H]4CCOC4)c3n2)CC1 [Tanzisertib] + COc1cccc2cc(-c3nc([C@H]4CC[C@H](C(=O)O)CC4)n4ncnc(N)c34)[nH]c12 [OSI-027] (partner 0.5 µM)
The method in brief: as §1

As to UMC-11, the relative viability with Tanzisertib + Bortezomib (first compound 0.08 µM) came out at 0.754; with Tanzisertib + Bortezomib (first compound 0.253 µM), 0.749; in the assay with Tanzisertib + Bortezomib (first compound 0.8 µM), 0.825; in the assay with Tanzisertib + Bortezomib (first compound 2.53 µM), 0.709; with Tanzisertib + Bortezomib (first compound 8 µM) it was 0.946; in assay [1] (first compound 0.08 µM) it was 0.394. Further, the relative viability was determined as 0.419 in assay [1] (first compound 0.8 µM); 0.392 in assay [1] (first compound 2.53 µM); 0.565 in assay [1] (first compound 8 µM); 0.669 in assay [2] (first compound 0.04 µM); 0.717 in assay [2] (first compound 0.1265 µM); 0.768 in assay [2] (first compound 0.4 µM). The relative viability in assay [2] (first compound 1.265 µM) worked out at 0.286; in assay [2] (first compound 4 µM) it was 0.415; with Tanzisertib + OSI-027 (first compound 0.08 µM) it was 0.532; with Tanzisertib + OSI-027 (first compound 0.253 µM) it was 0.391; in the assay with Tanzisertib + OSI-027 (first compound 0.8 µM) it was 0.537; with Tanzisertib + OSI-027 (first compound 2.53 µM), 0.439. In addition, in the assay with Tanzisertib + OSI-027 (first compound 8 µM), the relative viability amounted to 0.477.
